According to US7172879B2, “Detection of sphingosine kinase activity and sphingosine kinase agonist or antagonist activity” (Johnson & Johnson Pharmaceutical Research & Development LLP, priority 1997, dated 2007):

Legend:
Type in all cases: cell-based, human
ERK = ERK activity in HUVECs, immunoprecipitation and MBP substrate; settings: for stimulation of ERK activities: 30 min treatment
Description: After the cells were treated with an agent for 30 min, ERK activities were assayed with […] basic protein (MBP) as substrate after immunoprecipitation with antibodies against p42/p44^MAPK (Berra et al. 1995; Li et al., 1996; Lee et al., 1997). The kinase reaction products were separated on 10% SDS-polyacrylamide gels. Bar graph depicting ERK activities were quantified by Phosphoimager. NF-κB binding activity was measured by electrophoretic mobility shift assay after 30 min treatment as indicated.

VCAM-1 = assay: Cell-surface expression of VCAM-1 by HUVECs, flow cytometry
Description: (§1) Confluent monolayers of HUVECs were preincubated with or without HDL that was isolated as the fraction of density 1.13˜1.21 g/ml from human plasma at a concentration of 1 mg/ml of apoA-1. After 16-h preincubation, the cells were treated with TNFα (100 U/ml). Following 4-h treatment of TNFα, the cell-surface expression of VCAM-1 and E-selectin was measured by using flow cytometry.
(§2) HUVECs were treated with an increasing concentration of C2-ceramide with or without TNF α(100 U/ml), or an increasing concentration of Sph-1-P for 4 h. The cell-surface expression of VCAM-1 or E-selectin was measured by flow cytometry. Effect of sphingosine kinase inhibitor (DMS) on the expression of VCAM-1 and E-selectin. The cells were treated with a vehicle (Nil), DMS (5 μM), Sph-1-P (5 μM), C2-ceramide (10 μM) or TNFα (100 U/ml) for 4 h, then measure VCAM-1 or E-selectin expression. Effect of agents on E-selectin mRNA levels and the comparison between the effect of HDL and DMS. After the indicated treatment for 4 h, E-selectin mRNA levels were measured by Northern blotting assay. Results shown in (D) are representative of three similar experiments.

E-selectin = assay: Cell-surface expression of E-selectin by HUVECs, flow cytometry
Description: as §1, §2

NF-κB = NF-κB binding activity in HUVEC nuclear extracts, electrophoretic mobility shift assay; settings: HUVECs, 30 min treatment
Description: After the cells were treated with an agent for 30 min, ERK activities were assayed with mycline basic protein (MBP) as substrate after immunoprecipitation with antibodies against p42/p44^MAPK (Berra et al. 1995; Li et al., 1996; Lee et al., 1997). The kinase reaction products were separated on 10% SDS-polyacrylamide gels. Bar graph depicting ERK activities were quantified by Phosphoimager. NF-κB binding activity was measured by electrophoretic mobility shift assay after 30 min treatment as indicated. The specific NF-κB binding complexes were identified by the super-shift gel assay with anti-p50 and anti-p65 antibodies and by competition analyses with the addition of a 50-fold molar excess of unlabelled NF-κB oligonucleotides.
To measure the NF-κB binding activity, electrophoretic mobility-shift assays were performed. Nuclear extracts were prepared from HUVECs treated for 30 min with vehicle or the indicated agents. The double-stranded oligonucleotides used as a probe in these experiements included 5′-[…]-3′ (SEQ ID NO: 1) which contains a consensus NF-κB binding site in E-selection promoter that is underlined. Gel mobility shift of a consensus NF-κB oligonucleotide was performed by incubating ^32P-labelled NF-κB probe with […] of nuclear proteins. The Sph-1-P induced formation of NF-κB specific complexes were similar us that induced by TNFα. […]

E-selectin mRNA = E-selectin mRNA levels in HUVECs, Northern blotting; settings: 4 h treatment
Description: as §2
Total RNA was prepared from HUVECs that was treated with the indicated agents for 4 h. Equal aliquots of total RNA (12 μg) were electrophoresed in a 1% formaldehyde gel and transferred to nylon membrane. The blots were hybridized with α^=P-labeled E-selection cDNA probe. The mRNA levels of E-selectin were quantified by Phosphoimager and normalised to radiolabeled GAPDH probe.

Sph-1-P formation = Sph-1-P formation in permeabilized HUVECs; settings: endothelial cells; same concentration of DMS (5 μM)
Description: (§3) HUVECs were labelled with [^3H]sphingomyelin was measured at the desired time point of TNFα treatment. The unlabelled cells were treated with HDL and/or TNFα as indicated, cells were lysed to measure ceramide levels and sphingosine kinase activity, respectively. The cells were permeabilized to measure the production of Sph-1-P in vivo.
(§4) To measure sphingomyelin, the HUVECs were labeled with [^3H]serine (5 μCi/ml) for 48 h and preincubated with or without HDL for another 6 h. The cells were then washed three times and incubated for additional 2 h in the presence or absence of HDL. […] Sphingomyelin spots were visualized by fluorography, quantitated by scintillation spectrometry, and normalized by radioactivity recovered in total cellular lipids. […] To measure ceramide levels, cellular ceramide was extracted and quantified with the diacylglycerol kinase reaction (Kolesnick, 1991; Hannun & Bell, 1993). Sphingosine kinase activity was measured in vitro as previously described with some modification (Mattie et al., 1994; Ghosh et al., 1994; Choi et al., 1996). […] Sphingosine kinase activity was measured by incubating the supernatant with […] sphingosine-BSA complex and [γ^32P]ATP (1 mM, 5 μCi/ml) for 15 min at 37° C. […] Radioactivity of the spot corresponding to Sph-1-P was quantified using Phosphoimager system. […]

sphingosine kinase = assay: Sphingosine kinase activity in cytosolic fractions of treated HUVECs
Description: as §3, §4

sphingomyelin = assay: Sphingomyelin hydrolysis in labelled HUVECs; settings: within 30 min of TNFα stimulation
Description: as §3, §4

ceramide = assay: Cellular ceramide levels in HUVECs, diacylglycerol kinase reaction; settings: peak at 30 min after TNFα treatment
Description: as §3, §4

[1] = HUVECs, TNFα 100 U/ml, 4 h, flow cytometry
[2] = at 51 μM, compared with 100 U/ml TNF-α

CCCCCCCCCCCCC/C=C/[C@@H](O)[C@H](CO)NC(C)=O [C2-ceramide]
stimulation of ERK activities (ERK): did not
inhibition of TNFα-induced expression of VCAM-1 (VCAM-1; [1]): > 60%
inhibition of TNFα-induced expression of E-selectin (E-selectin; [1]): > 60%

CCCCCCCCCCCCC/C=C/[C@@H](O)[C@@H](N)COP(=O)(O)O [Sph-1-P, sphingosine-1-phosphate]
induction of nuclear NF-κB accumulation (NF-κB): significant nuclear NF-κB accumulation
stimulation of ERK activities (ERK): approximately equipotent
induction of E-selectin mRNA (E-selectin mRNA): induction of E-selectin mRNA
induction of VCAM-1, level reached (VCAM-1; [2]): approximately equivalent to 100 U/ml TNF-α
induction of E-selectin, level reached (E-selectin; [2]): approximately equivalent to 100 U/ml TNF-α

N,N-dimethylsphingosine [DMS]
inhibition of Sph-1-P formation induced either by TNF-α or PMA (Sph-1-P formation): > 90%
inhibition of sphingosine kinase activity induced either by TNF-α or PMA (sphingosine kinase; endothelial cells, same concentration of DMS (5 μM)): > 90%
inhibition of Sph-1-P induced activation of NF-κB (NF-κB): did not inhibit
inhibition of TNFα-activated ERK (ERK; 30 min, p<0.02): 50%
effect on Sph-1-P induced adhesion protein expression (VCAM-1) (VCAM-1; HUVECs, Sph-1-P 5 μM, 4 h): did not prevent
effect on Sph-1-P induced adhesion protein expression (E-selectin) (E-selectin; HUVECs, Sph-1-P 5 μM, 4 h): did not prevent

TNFα
cytosolic sphingosine kinase activity, maximum, % of basal (sphingosine kinase; HUVECs, within 5 min, p<0.01): 165±13%
stimulation of ERK activities (ERK): approximately equipotent
cellular sphingomyelin content, % of control (sphingomyelin): 40%
increase of cellular ceramide levels (ceramide): approximately 2 fold
